What is called GI50 is the concentration giving 50% growth inhibition.

Common to all, as to format: cell-based
In assay [1] the test system is Ba/F3 cells expressing L858R/T790M/C797S (EGFR-LTC). Put plainly: Growth inhibition (GI50) of Ba/F3 cells expressing L858R/T790M/C797S (EGFR-LTC), Celltiter glo. The settings on record: Mus musculus, BaF3, 72 h. How it is done:
(§1) In this experimental example, a determination was made as to whether the compounds prepared in Examples 1-283 have the ability to inhibit the growth of Ba/F3 cells expressing EGFR-wt, del19/T790M/C797S (EGFR-DTC), L858R/T790M/C797S (EGFR-LTC), del19/T790M (EGFR-DT), and L858R/T790M (EGFR-LT) variants.
(§2) The parental Ba/F3 cell line is a population of cells that are not introduced with EGFR variants. Specifically, 100 μl of a cell line expressing each variant was plated in a 96-well plate at a density of 100,000 cells/ml. 10-point, 4-fold serial dilutions of each compound were prepared, starting at 2 mM. After 4 h, 0.5 μl of the compound (0.5% DMSO) was added, followed by incubation at 37° C. and 5% CO2 for 72 h. After incubation, the number of viable cells was measured using a Celltiter glo assay kit (Promega) and the GI50 of the compound was determined. The term “GI50” refers to the molar concentration (μM) of the compound required for 50% growth inhibition of cells.
(In general: In ATP-based viability assays light output follows the ATP content of the culture.)

Assay [2] has as its system Ba/F3 cells expressing EGFR-wt. The assay is described as follows: Growth inhibition (GI50) of Ba/F3 cells expressing EGFR-wt, Celltiter glo. The settings on record: Mus musculus, BaF3, 72 h. On the procedure:
as §1, §2

Assay [3] relates to Ba/F3 cells expressing del19/T790M/C797S (EGFR-DTC). Put plainly: Growth inhibition (GI50) of Ba/F3 cells expressing del19/T790M/C797S (EGFR-DTC), Celltiter glo. The following applies: Mus musculus, BaF3, 72 h. On the procedure: as §1, §2
Assay [4] concerns parental Ba/F3 cell line. Put plainly: Growth inhibition (GI50) of the parental Ba/F3 cell line (not introduced with EGFR variants), Celltiter glo. The following applies: Mus musculus, BaF3, 72 h, parental Ba/F3 cells. How it is done: as §2

Structures are written as SMILES.

On to `CN1CCN(C2CCN(c3ncc(Nc4ncc(Br)c(Nc5ccc(F)cc5NS(C)(=O)=O)n4)cc3F)CC2)CC1` [Example 25, N-(2-((5-bromo-2-((5-fluoro-6-(4-(4-methylpiperazin-1-yl)piperidin-1-yl)pyridin-3-yl)amino)pyrimidin-4-yl)amino)-5-fluorophenyl)methanesulfonamide], for which the GI50 in assay [1] lay in the range of 100 to 500 nM; in assay [2], 500 to 2000 nM; in assay [3], 100 to 500 nM; in assay [4], 500 to 2000 nM.

Take `Cc1cc(Nc2ncc(Cl)c(Nc3cc(Cl)ccc3-c3cnn[nH]3)n2)c(Cl)cc1N1CCC(N2CCN(C)CC2)CC1` [Example 185]: the GI50 lay in the range of 25 to 100 nM in assay [1], 500 to 2000 nM in assay [2], 500 to 2000 nM in assay [3] and 500 to 2000 nM in assay [4].

For the compound `COc1nc(N2CCC(N(C)C)C2)ccc1NC1=[N+]=C(N(c2ccccc2NS(C)(=O)=O)S(C)(=O)=O)C(Cl)=CN1` (centres unmarked) [Example 8, N-(5-chloro-2-((6-(3-(dimethylamino)pyrrolidin-1-yl)-2-methoxypyridin-3-yl)amino)pyrimidin-4-yl)-N-(2-(methylsulfonamido)phenyl)methanesulfonamide], the GI50 in assay [1] was in the range of 500 to 2000 nM; in assay [2] it was 2000 to 10000 nM; in assay [3], 100 to 500 nM; in assay [4] it was 2000 to 10000 nM.

Regarding `COc1cc(N2CCC(N3CCN(C)CC3)CC2)c(Cl)cc1Nc1ncc(Cl)c(Nc2ccccc2NS(C)(=O)=O)n1` [Example 7, N-(2-((5-chloro-2-((5-chloro-2-methoxy-4-(4-(4-methylpiperazin-1-yl)piperidin-1-yl)phenyl)amino)pyrimidin-4-yl)amino)phenyl)methanesulfonamide], the GI50 is 100 to 500 nM in assay [1], 100 to 500 nM in assay [2], 100 to 500 nM in assay [3] and 500 to 2000 nM in assay [4].

`CC(=O)Nc1cc(Cl)c(Cl)cc1Nc1nc(Nc2ccc(N3CCC(N4CCN(C)CC4)CC3)c(F)c2)ncc1Cl` [Example 76, N-(4,5-dichloro-2-((5-chloro-2-((3-fluoro-4-(4-(4-methylpiperazin-1-yl)piperidin-1-yl)phenyl)amino)pyrimidin-4-yl)amino)phenyl)acetamide]: the GI50 in assay [1], in assay [2], in assay [3] and in assay [4] was 100 to 500 nM each time.

`COc1cc(N2CCC(N3CCN(C)CC3)CC2)c(C)cc1Nc1ncc(Cl)c(Nc2cc(Cl)c(Cl)cc2NS(C)(=O)=O)n1` [Example 99, N-(4,5-dichloro-2-((5-chloro-2-((2-methoxy-5-methyl-4-(4-(4-methylpiperazin-1-yl)piperidin-1-yl)phenyl)amino)pyrimidin-4-yl)amino)phenyl)methanesulfonamide]: the 50% growth inhibitory concentration (GI50) in assay [1] was 25 to 100 nM; in assay [2], 500 to 2000 nM; in assay [3] it was 25 to 100 nM; in assay [4], more than 10000 nM.

As for `COc1nc(N2CCC(N3CCN(C)CC3)CC2)c(C)cc1Nc1ncc(Cl)c(Nc2cc(Cl)c(Cl)cc2NS(C)(=O)=O)n1` [Example 100], the GI50 in assay [1] lay in the range of 100 to 500 nM; in assay [2], 500 to 2000 nM; in assay [3], 100 to 500 nM; in assay [4], 2000 to 10000 nM.

`COc1cc(N2CCC(N3CCN(C)CC3)CC2)c(F)cc1Nc1ncc(Br)c(Nc2cc(Cl)ccc2NS(C)(=O)=O)n1` [Example 92, N-(2-((5-bromo-2-((5-fluoro-2-methoxy-4-(4-(4-methylpiperazin-1-yl)piperidin-1-yl)phenyl)amino)pyrimidin-4-yl)amino)-4-chlorophenyl)methanesulfonamide]: the GI50 in assay [1] fell in the range of 25 to 100 nM; in assay [2], 100 to 500 nM; in assay [3] it was 1 to 25 nM; in assay [4], 2000 to 10000 nM.

For the compound `Cc1ccc(NS(C)(=O)=O)c(Nc2nc(Nc3cc(C)c(N4CCC(N5CCN(C)CC5)CC4)cc3Cl)ncc2Br)c1` [Example 109, N-(2-((5-bromo-2-((2-chloro-5-methyl-4-(4-(4-methylpiperazin-1-yl)piperidin-1-yl)phenyl)amino)pyrimidin-4-yl)amino)-4-methylphenyl)methanesulfonamide], the GI50 in assay [1] is 1 to 25 nM; in assay [2] it was 100 to 500 nM; in assay [3], 25 to 100 nM; in assay [4], 500 to 2000 nM.

Consider `COc1nc(N2C[C@@H](C)N(C)[C@@H](C)C2)ccc1Nc1ncc(Cl)c(Nc2ccc3nccnc3c2P(C)(C)=O)n1` [Example 126, (6-((5-chloro-2-((2-methoxy-6-((3S,5R)-3,4,5-trimethylpiperazin-1-yl)pyridin-3-yl)amino)pyrimidin-4-yl)amino)quinoxalin-5-yl)dimethylphosphine oxide], for which the GI50 in assay [1] is 500 to 2000 nM; in assay [2], 2000 to 10000 nM; in assay [3], 100 to 500 nM; in assay [4], 2000 to 10000 nM.

For the compound `CC(=O)Nc1cc(Cl)c(Cl)cc1Nc1nc(Nc2ccc(N3CCOCC3)nc2)ncc1Cl` [Example 74, N-(4,5-dichloro-2-((5-chloro-2-((6-morpholinopyridin-3-yl)amino)pyrimidin-4-yl)amino)phenyl)acetamide], the GI50 in assay [1] is 2000 to 10000 nM; in assay [2], more than 10000 nM; in assay [3], 2000 to 10000 nM; in assay [4], more than 10000 nM.

Take `COc1cc(N2CCC(N3CCN(C)CC3)CC2)c(C)cc1Nc1ncc(Cl)c(N(c2ccccc2NS(C)(=O)=O)S(C)(=O)=O)n1` [Example 9, N-(5-chloro-2-((2-methoxy-5-methyl-4-(4-(4-methylpiperazin-1-yl)piperidin-1-yl)phenyl)amino)pyrimidin-4-yl)-N-(2-(methylsulfonamido)phenyl)methanesulfonamide]: the 50% growth inhibitory concentration (GI50) in assay [1] was 25 to 100 nM; in assay [2], 100 to 500 nM; in assay [3], 100 to 500 nM; in assay [4] it was 500 to 2000 nM.

Turning to `COc1cc(N2CCC(N3CCN(C)CC3)CC2)c(C)cc1Nc1nc(N)c(Cl)c(Nc2ccc(F)cc2NS(C)(=O)=O)n1` [Example 141, N-(2-((6-amino-5-chloro-2-((2-methoxy-5-methyl-4-(4-(4-methylpiperazin-1-yl)piperidin-1-yl)phenyl)amino)pyrimidin-4-yl)amino)-5-fluorophenyl)methanesulfonamide], the 50% growth inhibitory concentration (GI50) was 500 to 2000 nM in assay [1], 500 to 2000 nM in assay [2], 500 to 2000 nM in assay [3] and more than 10000 nM in assay [4].

For the compound `COc1cc(N2CCC(N3CCN(C)CC3)CC2)c(C)cc1Nc1ncc(Cl)c(N(C)c2ccccc2NS(C)(=O)=O)n1` [Example 120, N-(2-((5-chloro-2-((2-methoxy-5-methyl-4-(4-(4-methylpiperazin-1-yl)piperidin-1-yl)phenyl)amino)pyrimidin-4-yl)(methyl)amino)phenyl)methanesulfonamide], the GI50 is 2000 to 10000 nM in assay [1], 2000 to 10000 nM in assay [2], 2000 to 10000 nM in assay [3] and more than 10000 nM in assay [4].

Take `COc1cc(N2CCC(N3CCN(C)CC3)CC2)c(F)cc1Nc1ncc(Br)c(Nc2cc(C)ccc2NS(C)(=O)=O)n1` [Example 108]: the GI50 in assay [1] lay within 100 to 500 nM; in assay [2], 500 to 2000 nM; in assay [3] it was 25 to 100 nM; in assay [4], 2000 to 10000 nM.

Turning to `COc1nc(N2CCC(N3CCN(C)CC3)CC2)ccc1Nc1ncc(Cl)c(N(c2ccccc2NS(C)(=O)=O)S(C)(=O)=O)n1` [Example 10, N-(5-chloro-2-((2-methoxy-6-(4-(4-methylpiperazin-1-yl)piperidin-1-yl)pyridin-3-yl)amino)pyrimidin-4-yl)-N-(2-(methylsulfonamido)phenyl)methanesulfonamide], the GI50 lay in the range of 500 to 2000 nM in assay [1], 500 to 2000 nM in assay [2], 500 to 2000 nM in assay [3] and 2000 to 10000 nM in assay [4].

As for `COc1cc(N2CCC(N3CCN(C)CC3)CC2)ccc1Nc1ncc(Cl)c(Nc2ccc3nccnc3c2NS(C)(=O)=O)n1` [Example 133, N-(6-((5-chloro-2-((2-methoxy-4-(4-(4-methylpiperazin-1-yl)piperidin-1-yl)phenyl)amino)pyrimidin-4-yl)amino)quinoxalin-5-yl)methanesulfonamide], the GI50 lay within 100 to 500 nM in assay [1], 500 to 2000 nM in assay [2], 100 to 500 nM in assay [3] and 500 to 2000 nM in assay [4].

On to `COc1nc(N2CCC(N3CCN(C)CC3)CC2)ccc1Nc1ncc(Cl)c(Nc2cc(Cl)ccc2NS(C)(=O)=O)n1` [Example 81], for which the GI50 lay within 500 to 2000 nM in assay [1], 2000 to 10000 nM in assay [2], 500 to 2000 nM in assay [3] and 500 to 2000 nM in assay [4].

For the compound `CN1CCN(C2CCN(c3ncc(Nc4ncc(Cl)c(N(c5ccc6scnc6c5NS(C)(=O)=O)S(C)(=O)=O)n4)cc3F)CC2)CC1` [Example 113, N-(5-chloro-2-((5-fluoro-6-(4-(4-methylpiperazin-1-yl)piperidin-1-yl)pyridin-3-yl)amino)pyrimidin-4-yl)-N-(4-(methylsulfonamido)benzo[d]thiazol-5-yl)methanesulfonamide], the GI50 is 500 to 2000 nM in assay [1], 2000 to 10000 nM in assay [2], 500 to 2000 nM in assay [3] and 2000 to 10000 nM in assay [4].

As to `COc1cc(N2CCC(N3CCN(C)CC3)CC2)c(C)cc1Nc1ncc(Cl)c(Nc2ccccc2CS(C)(=O)=O)n1` [Example 62], the 50% growth inhibitory concentration (GI50) in assay [1] fell in the range of 25 to 100 nM; in assay [2] it was 100 to 500 nM; in assay [3], 25 to 100 nM; in assay [4], 500 to 2000 nM.

Source of the values: patent US20240228458A1, “PYRIMIDINE DERIVATIVE HAVING PROTEIN KINASE INHIBITORY ACTIVITY, AND THERAPEUTIC PHARMACEUTICAL COMPOSITION COMPRISING SAME” (THERAPEX CO., LTD., priority 2021, published 2024).
